Here are results for three molecules from patent US20260041703A1, “HYPERBRANCHED DEXTRINS FOR TOPICAL USE IN THE PREVENTION OR TREATMENT OF AT LEAST ONE SYMPTOM OF SKIN INFLAMMATION” (ROQUETTE FRERES, priority 2022, published 2026).

Data set [1] concerns reconstructed human epidermis (normal human epidermal keratinocytes, NHEK). The data set is described as follows: MTT cell proliferation (viability) test on 2D reconstructed human epidermis after SLS inflammation. It counts as cell-based. As to conditions: % of untreated control. The procedure: Irritating chemical compounds are able to penetrate the stratum corneum and are cytotoxic to cells in the underlying layers. […] Cell viability is measured upon metabolism, by mitochondrial succinic dehydrogenase, of the vital dye MTT [3-(4,5-dimethylthiazol-2-yl)-2,5-bromide diphenyltetrazolium, thiazolyl blue; EINECS number 206-069-5, CAS number 298-93-1)], to a blue formazan salt which is measured quantitatively after its extraction from tissues.
The colored solution is measured spectrophotometrically at 570 nm using the Molecular Devices Vmax microplate reader, and absorbance values are recorded using the SOFTmax PRO v4.7.1 software. Statistical analysis is performed using GraphPad Prism v5.03 software.
Cytotoxicity of samples was tested using the epidermis model and is expressed as a percentage of untreated control (UTC) tissue.

Data set [2] concerns IL-1α. Briefly: Semi-quantitative fluorescence cytokine array (Human Cytokine Array G3), IL-1α. It counts as cell-based. The conditions noted are these: 0.5% SLS positive control (6 hours); fluorescent signal intensity. Here is the method: (§1) Cell culture supernatants collected after epidermal treatment are tested using the Human Cytokine Array G3 kit (RayBiotech).
(§2) On a glass slide containing the different specific antibodies, supernatants are deposited at a rate of 100 μL per well. A cocktail of biotin-coupled secondary antibodies is then added. With the addition of streptavidin, signal intensities are detected by fluorescence. Each step is followed by several washes.
(§3) The ratios (fluorescent signal intensity of the marker in the presence of the samples/fluorescent signal intensity of the marker in the untreated control) were calculated for each treatment from n=3 epidermal culture supernatants (except for the untreated control, n=2).
(§4) A ratio >1.5 reflects overexpression of the inflammatory marker.
(§5) A ratio <0.65 indicates underexpression of the inflammatory marker.
(§6) According to the supplier's criteria, signals are usable when they are greater than the average of the background noise+2SD.

The next data set concerns RANTES. Briefly: Semi-quantitative fluorescence cytokine array (Human Cytokine Array G3), RANTES. The class given is cell-based. As to conditions: 0.5% SLS positive control (6 hours). Here is the method:
as §1, §2, §3, §4, §5, §6

For the next data set, the system named is IL-1β. Briefly: Semi-quantitative fluorescence cytokine array (Human Cytokine Array G3), IL-1β. The class given is cell-based. As to conditions: 0.5% SLS positive control (6 hours). Here is the method: as §1, §2, §3, §4, §5, §6
The subject of the next data set is VEGF. Briefly: Semi-quantitative fluorescence cytokine array (Human Cytokine Array G3), VEGF. The conditions noted are these: 0.5% SLS positive control (6 hours). The class given is cell-based. Here is the method: as §1, §2, §3, §4, §5, §6
Another data set concerns IL-8. The data set is described as follows: ELISA assay of inflammation marker IL-8 in supernatant of 2D reconstructed human epidermis. The class given is cell-based. The conditions noted are these: 0.5% SLS positive control (6 hours). From the text:
After washing, HRP-streptavidin is deposited in the wells. […] The inflammatory response is interpreted as a sample-to-untreated ratio greater than or equal to 2.
A ratio greater than or equal to 2 reflects overexpression of the inflammatory marker while a ratio less than 2 indicates non-expression of the inflammatory marker.
A general note: ELISA stands for enzyme-linked immunosorbent assay.

In data set [3] the test system is IL-1α. The data set is described as follows: ELISA assay of inflammation marker IL-1α in supernatant of 2D reconstructed human epidermis. As to conditions: 0.5% SLS positive control (6 hours).
Experimental: This model comprises a monolayer of normal human epidermal keratinocytes (NHEK, one of the main cell types of the skin), which have been cultured on inert polycarbonate inserts.
The epidermises were treated with a 0.5% aqueous solution of Sodium Lauryl Sulfate (SLS) for 6 hours to create inflammation of the reconstructed epidermis, then the surface of the epidermises was rinsed with 500 μL of PBS. 20 μL of different concentrations of hydrogenated and highly branched dextrins (10 and 5% in ultrapure water) and 0.05% Betamethasone cream (Biogaran cream, a corticoid with an anti-inflammatory role) were applied topically to the epidermis for 20 hours at 37° C. No application was made for the SLS control within 20 hours of rinsing with PBS. […]
For this, cell supernatants are collected after the required treatment time and commercially available ELISA kits are used to quantitatively determine the presence of inflammatory markers.
These ELISA kits are designed for quantitative measurement of the aforementioned markers, particularly in culture supernatants using specific human antibodies. […] A developer solution changes the color from blue to yellow, and its intensity is measured at 450 nm using the Molecular Devices Vmax microplate reader. Absorbance values are recorded and analyzed using SOFTmax PRO v4.7.1 software. […]
In data set [4] the test system is 3D reconstructed human epidermis. Briefly: Membrane integrity (LDH release, colorimetry) in 3D reconstructed human epidermis model. The class given is cell-based. The source says: The aim of the study was to assess the membrane integrity of skin cells in a three-dimensional (3D) reconstructed human epidermis model, by measuring the amount of the enzyme lactate dehydrogenase (LDH) in the culture supernatant, using colorimetry. LDH is an enzyme that is released in the event of cell death. The absence of LDH secretion is a sign that the integrity of epidermal cell membranes is preserved. Samples of 3D reconstructed human epidermis were immersed in an aqueous solution containing 0.5% by weight of sodium lauryl sulfate, for 6 hours. […] The amount of LDH secreted into the supernatant was then determined colorimetrically.

Take `CCCCCCCCCCCCOS(=O)(=O)[O-].[Na+]` [SLS, Sodium Lauryl Sulfate]: the Viability % in data set [1] (0.5% SLS positive control (6 hours)) amounted to 82.1%. Also, the Viability % in data set [1] (2% SLS positive control, mean of 3 replicates) turned out to be 0.9%. Moreover, the “IL-1α Sample/Untreated ratio” value in the data set with IL-1α [2] worked out at 2.3. In addition, the “RANTES Sample/Untreated ratio” value in the data set with RANTES was 6.7. In the data set with IL-1β, the “IL-1β Sample/Untreated ratio” value was 0.8. Moreover, in the data set with VEGF, the “VEGF Sample/Untreated ratio” value was 1.9. Moreover, in the data set with IL-8, the “IL-8 Sample:Untreated ratio” value was found to be 3.2 and the IL-8 assayed quantity result is “(453 pg/mL)”. Besides, in the data set on IL-1α [3], the “IL-1a Sample:Untreated ratio” value came out at 2.3 and the IL-1a assayed quantity result is listed as “(61 pg/mL)”.
Turning to `C[C@H]1C[C@H]2[C@@H]3CCC4=CC(=O)C=C[C@]4(C)[C@@]3(F)[C@@H](O)C[C@]2(C)[C@@]1(O)C(=O)CO` [betamethasone], the “Membrane integrity (%)” value in data set [4] (0.5% SLS (6 hours) + 0.5% betamethasone (20 hours)) was 110.7%.
Regarding `CC(C)=CCC[C@](C)(O)C1CC=C(C)CC1` (stereo partly drawn) [bisabolol], the “Membrane integrity (%)” value in data set [4] (0.5% SLS (6 hours) + 0.5% bisabolol (20 hours)) came to 16.8%.
